SMILES strings stand for the structures.

The IC50 is the concentration needed to halve the response being measured.

In the first experiment the test system is A431. The experiment can be described thus: Cell proliferation IC50 assay (Cell Titer GLO), A431 cells. Type of experiment: cell-based. To be noted: Homo sapiens, A-431; Table 6; A431, 72 h; read-out: A431 IC50. Summed up:
(§1)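 Each cell line, plated at 2000-4000 cells/well, received serially diluted compound for 72 h (37° C, 5% CO2) before luminescent ATP-based viability detection. IC50 values were derived from growth inhibition relative to DMSO-treated and cell-free blank wells.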
In general terms: ATP-based viability assays read luminescence as a measure of living cells.
As to `COc1cc(N2CCC(N3CCN(CCOc4cccc5c4CN(C4CCC(=O)NC4=O)C5=O)CC3)CC2)c(C(C)=O)cc1Nc1ncc(Cl)c(Nc2ccccc2P(C)(C)=O)n1` (stereo not drawn) [Example E185], the IC50 came out at 1830 nM.
The same measure, in the same setting: with `COc1cc(N2CCC(N3CCC4(CCC(=Cc5cccc6c5CN(C5CCC(=O)NC5=O)C6=O)CC4)C3)CC2)c(C2CC2)cc1Nc1ncc(Cl)c(Nc2ccccc2P(C)(C)=O)n1` (stereo not drawn) [Example E36] the figure was 1130 nM; with `CCc1cc(Nc2ncc(Cl)c(Nc3ccccc3P(C)(C)=O)n2)c(OC)cc1N1CCC(N2CCN(C3(CC#Cc4cccc5c4CN(C4CCC(=O)NC4=O)C5=O)CC3)CC2)CC1` (stereo not drawn) [Example E57], > 4000 nM; with `CCc1cc(Nc2ncc(Cl)c(Nc3ccccc3P(C)(C)=O)n2)c(OC)cc1N1CCC(N2CCN(CCCCCc3ccc4c(N5CCC(=O)NC5=O)nn(C)c4c3)CC2)CC1` [Example E65], 1060 nM.
On to `CCc1cc(Nc2ncc(Cl)c(Nc3ccccc3P(C)(C)=O)n2)c(OC)cc1N1CCC(N2C[C@@H]3C[C@H]2CN3CCOc2cccc3c2CN(C2CCC(=O)NC2=O)C3=O)CC1` (stereo partly drawn) [Example E137], for which the concentration for half-maximal inhibition (IC50) was 1270 nM.
On the same count and under the same terms, with `CCc1cc(Nc2ncc(Cl)c(Nc3ccccc3P(C)(C)=O)n2)cc(OC)c1N1CCC(N2CCN(CCC#Cc3cccc4c3CN(C3CCC(=O)NC3=O)C4=O)CC2)CC1` (stereo not drawn) [Example E93] the figure was 827 nM.

For the next experiment, the system named is BaF3 (EGFR WT). Nature of the experiment: Cell proliferation IC50 assay (Cell Titer GLO), BaF3 WT cells. Type of experiment: cell-based. Conditions: Mus musculus, Ba/F3 EGFR, Table 6, 10 ng/ml EGF, 72 h. Summed up: as §1
`COc1cc(N2CCC(N3CCN(CCOc4cccc5c4CN(C4CCC(=O)NC4=O)C5=O)CC3)CC2)c(C(C)=O)cc1Nc1ncc(Cl)c(Nc2ccccc2P(C)(C)=O)n1` (stereo not drawn) [Example E185] came in with an IC50 of 1650 nM.
Still for that read-out and setting: with `COc1cc(N2CCC(N3CCC4(CCC(=Cc5cccc6c5CN(C5CCC(=O)NC5=O)C6=O)CC4)C3)CC2)c(C2CC2)cc1Nc1ncc(Cl)c(Nc2ccccc2P(C)(C)=O)n1` (stereo not drawn) [Example E36] the figure was 541 nM; with `CCc1cc(Nc2ncc(Cl)c(Nc3ccccc3P(C)(C)=O)n2)c(OC)cc1N1CCC(N2CCN(C3(CC#Cc4cccc5c4CN(C4CCC(=O)NC4=O)C5=O)CC3)CC2)CC1` (stereo not drawn) [Example E57], > 4000 nM.
In the case of `CCc1cc(Nc2ncc(Cl)c(Nc3ccccc3P(C)(C)=O)n2)c(OC)cc1N1CCC(N2CCN(CCCCCc3ccc4c(N5CCC(=O)NC5=O)nn(C)c4c3)CC2)CC1` [Example E65], the IC50 came out at 1730 nM.
The same measure, in the same setting: the result for `CCc1cc(Nc2ncc(Cl)c(Nc3ccccc3P(C)(C)=O)n2)c(OC)cc1N1CCC(N2C[C@@H]3C[C@H]2CN3CCOc2cccc3c2CN(C2CCC(=O)NC2=O)C3=O)CC1` (stereo partly drawn) [Example E137] reads 1080 nM; that for `CCc1cc(Nc2ncc(Cl)c(Nc3ccccc3P(C)(C)=O)n2)cc(OC)c1N1CCC(N2CCN(CCC#Cc3cccc4c3CN(C3CCC(=O)NC3=O)C4=O)CC2)CC1` (stereo not drawn) [Example E93], 75.4 nM.

The target of another experiment is T1, BaF3 (EGFR Del19/C797S) (Homo sapiens, UniProt P00533, C797S, cells depend on it, form not given).
T1 construct: BaF3 (EGFR Del19/C797S)|DC|RPMI1640 + 10% FBS
T1 sequence (P00533 with tags, fused parts or gaps DEL746-750/C797S, form open): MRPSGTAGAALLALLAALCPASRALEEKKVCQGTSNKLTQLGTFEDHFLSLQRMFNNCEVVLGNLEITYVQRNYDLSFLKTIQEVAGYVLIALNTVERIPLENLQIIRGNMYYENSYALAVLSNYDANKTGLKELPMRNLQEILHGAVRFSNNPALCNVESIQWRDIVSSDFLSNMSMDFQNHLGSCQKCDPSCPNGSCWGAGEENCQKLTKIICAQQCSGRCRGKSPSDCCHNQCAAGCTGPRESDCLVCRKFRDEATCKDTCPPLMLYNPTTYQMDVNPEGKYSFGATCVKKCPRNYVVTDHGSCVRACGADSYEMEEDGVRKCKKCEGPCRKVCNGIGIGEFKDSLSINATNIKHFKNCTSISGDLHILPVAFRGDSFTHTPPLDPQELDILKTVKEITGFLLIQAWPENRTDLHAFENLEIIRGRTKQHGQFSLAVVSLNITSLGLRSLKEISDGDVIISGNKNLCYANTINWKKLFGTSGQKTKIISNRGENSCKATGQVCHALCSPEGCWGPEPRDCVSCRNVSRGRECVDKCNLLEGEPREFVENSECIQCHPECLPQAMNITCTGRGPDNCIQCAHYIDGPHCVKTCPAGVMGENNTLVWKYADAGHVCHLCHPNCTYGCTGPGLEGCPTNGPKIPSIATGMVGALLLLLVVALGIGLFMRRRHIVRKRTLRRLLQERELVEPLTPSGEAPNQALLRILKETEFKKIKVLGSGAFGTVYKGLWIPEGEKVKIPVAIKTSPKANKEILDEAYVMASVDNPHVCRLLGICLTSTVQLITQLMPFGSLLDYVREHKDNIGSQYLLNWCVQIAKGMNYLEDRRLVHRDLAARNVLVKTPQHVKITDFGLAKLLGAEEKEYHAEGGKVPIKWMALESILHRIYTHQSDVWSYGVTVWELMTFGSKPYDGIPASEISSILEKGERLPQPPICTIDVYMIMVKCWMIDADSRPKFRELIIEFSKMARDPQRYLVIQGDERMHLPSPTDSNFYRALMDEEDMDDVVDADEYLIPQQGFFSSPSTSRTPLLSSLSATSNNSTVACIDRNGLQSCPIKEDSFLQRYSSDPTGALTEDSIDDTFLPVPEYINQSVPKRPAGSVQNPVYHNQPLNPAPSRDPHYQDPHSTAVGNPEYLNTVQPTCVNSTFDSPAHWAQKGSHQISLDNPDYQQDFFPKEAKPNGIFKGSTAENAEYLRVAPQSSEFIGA
Nature of the experiment: Cell proliferation IC50 assay (Cell Titer GLO), BaF3 DC cells. Type of experiment: cell-based, mouse. Conditions: Table 6, 72 h. A digest of the protocol:
as §1
Take `COc1cc(N2CCC(N3CCN(CCOc4cccc5c4CN(C4CCC(=O)NC4=O)C5=O)CC3)CC2)c(C(C)=O)cc1Nc1ncc(Cl)c(Nc2ccccc2P(C)(C)=O)n1` (stereo not drawn) [Example E185]: inhibition was half-maximal at 20.3 nM (IC50).
`COc1cc(N2CCC(N3CCC4(CCC(=Cc5cccc6c5CN(C5CCC(=O)NC5=O)C6=O)CC4)C3)CC2)c(C2CC2)cc1Nc1ncc(Cl)c(Nc2ccccc2P(C)(C)=O)n1` (stereo not drawn) [Example E36] had an IC50 of 3.1 nM.
On to `CCc1cc(Nc2ncc(Cl)c(Nc3ccccc3P(C)(C)=O)n2)c(OC)cc1N1CCC(N2CCN(C3(CC#Cc4cccc5c4CN(C4CCC(=O)NC4=O)C5=O)CC3)CC2)CC1` (stereo not drawn) [Example E57], for which the IC50 was determined as 22.1 nM.
Still for that read-out and setting: the result for `CCc1cc(Nc2ncc(Cl)c(Nc3ccccc3P(C)(C)=O)n2)c(OC)cc1N1CCC(N2CCN(CCCCCc3ccc4c(N5CCC(=O)NC5=O)nn(C)c4c3)CC2)CC1` [Example E65] reads 15.8 nM; that for `CCc1cc(Nc2ncc(Cl)c(Nc3ccccc3P(C)(C)=O)n2)c(OC)cc1N1CCC(N2C[C@@H]3C[C@H]2CN3CCOc2cccc3c2CN(C2CCC(=O)NC2=O)C3=O)CC1` (stereo partly drawn) [Example E137], 6.6 nM; that for `CCc1cc(Nc2ncc(Cl)c(Nc3ccccc3P(C)(C)=O)n2)cc(OC)c1N1CCC(N2CCN(CCC#Cc3cccc4c3CN(C3CCC(=O)NC3=O)C4=O)CC2)CC1` (stereo not drawn) [Example E93], 15 nM.

The next experiment deals with BaF3 (EGFR Del19/T790M/C797S). The experiment can be described thus: Cell proliferation IC50 assay (Cell Titer GLO), BaF3 DTC cells. Type of experiment: cell-based. Conditions: Mus musculus, Ba/F3 EGFR-Del19/T790M/C797S, Table 6, 72 h. How it is done: IC50 of compounds in the present invention was determined by Cell Titer GLO reagent from Promega. The procedures are as follows:
Tumor cells were cultured in specified medium in an incubator at 37° C. and 5% CO2. The cells were passaged periodically. Cells at the logarithmic growth phase were collected for plating at a density of 2000-4000 cells/well. The next day, the compounds of the present invention were serially diluted and added to the cells, with DMSO being the negative control and the culture media without cells being the blank control. The plate was incubated in the incubator for 72 h. The cell viability assay was performed by adding the detection reagents to the cell culture media according to Cell Titer GLO reagent instructions and detecting luminescent signals on an EnVision microplate reader (PerkinElmer).
Inhibition of cell growth by the compounds of the present invention was plotted by Prism Graphpad software for statistically calculating the IC50 of the compound of the present invention.
`COc1cc(N2CCC(N3CCN(CCOc4cccc5c4CN(C4CCC(=O)NC4=O)C5=O)CC3)CC2)c(C(C)=O)cc1Nc1ncc(Cl)c(Nc2ccccc2P(C)(C)=O)n1` (stereo not drawn) [Example E185] displayed an IC50 of 18.8 nM.
Consider `COc1cc(N2CCC(N3CCC4(CCC(=Cc5cccc6c5CN(C5CCC(=O)NC5=O)C6=O)CC4)C3)CC2)c(C2CC2)cc1Nc1ncc(Cl)c(Nc2ccccc2P(C)(C)=O)n1` (stereo not drawn) [Example E36], for which the IC50 turned out to be 9.49 nM.
On the same count and under the same terms, the result for `CCc1cc(Nc2ncc(Cl)c(Nc3ccccc3P(C)(C)=O)n2)c(OC)cc1N1CCC(N2CCN(C3(CC#Cc4cccc5c4CN(C4CCC(=O)NC4=O)C5=O)CC3)CC2)CC1` (stereo not drawn) [Example E57] reads 72.5 nM; that for `CCc1cc(Nc2ncc(Cl)c(Nc3ccccc3P(C)(C)=O)n2)c(OC)cc1N1CCC(N2CCN(CCCCCc3ccc4c(N5CCC(=O)NC5=O)nn(C)c4c3)CC2)CC1` [Example E65], 35.3 nM; that for `CCc1cc(Nc2ncc(Cl)c(Nc3ccccc3P(C)(C)=O)n2)c(OC)cc1N1CCC(N2C[C@@H]3C[C@H]2CN3CCOc2cccc3c2CN(C2CCC(=O)NC2=O)C3=O)CC1` (stereo partly drawn) [Example E137], 11.5 nM.
With `CCc1cc(Nc2ncc(Cl)c(Nc3ccccc3P(C)(C)=O)n2)cc(OC)c1N1CCC(N2CCN(CCC#Cc3cccc4c3CN(C3CCC(=O)NC3=O)C4=O)CC2)CC1` (stereo not drawn) [Example E93], the IC50 turned out to be 9.74 nM.

The next experiment concerns BaF3 (EGFR L858R/T790M/C797S). Nature of the experiment: Cell proliferation IC50 assay (Cell Titer GLO), BaF3 LTC cells. Type of experiment: cell-based. To be noted: Mus musculus, Ba/F3 EGFR, Table 6, 72 h. Summed up: as §1
Take `COc1cc(N2CCC(N3CCN(CCOc4cccc5c4CN(C4CCC(=O)NC4=O)C5=O)CC3)CC2)c(C(C)=O)cc1Nc1ncc(Cl)c(Nc2ccccc2P(C)(C)=O)n1` (stereo not drawn) [Example E185]: the IC50 was 144 nM.
Consider `COc1cc(N2CCC(N3CCC4(CCC(=Cc5cccc6c5CN(C5CCC(=O)NC5=O)C6=O)CC4)C3)CC2)c(C2CC2)cc1Nc1ncc(Cl)c(Nc2ccccc2P(C)(C)=O)n1` (stereo not drawn) [Example E36], for which half-maximal inhibition (IC50) was put at 24.7 nM.
For `CCc1cc(Nc2ncc(Cl)c(Nc3ccccc3P(C)(C)=O)n2)c(OC)cc1N1CCC(N2CCN(C3(CC#Cc4cccc5c4CN(C4CCC(=O)NC4=O)C5=O)CC3)CC2)CC1` (stereo not drawn) [Example E57], the IC50 came out at 456 nM.
On the same count and under the same terms, the result for `CCc1cc(Nc2ncc(Cl)c(Nc3ccccc3P(C)(C)=O)n2)c(OC)cc1N1CCC(N2CCN(CCCCCc3ccc4c(N5CCC(=O)NC5=O)nn(C)c4c3)CC2)CC1` [Example E65] reads 267 nM.
On the same count and under the same terms, the result for `CCc1cc(Nc2ncc(Cl)c(Nc3ccccc3P(C)(C)=O)n2)c(OC)cc1N1CCC(N2C[C@@H]3C[C@H]2CN3CCOc2cccc3c2CN(C2CCC(=O)NC2=O)C3=O)CC1` (stereo partly drawn) [Example E137] reads 76.3 nM; that for `CCc1cc(Nc2ncc(Cl)c(Nc3ccccc3P(C)(C)=O)n2)cc(OC)c1N1CCC(N2CCN(CCC#Cc3cccc4c3CN(C3CCC(=O)NC3=O)C4=O)CC2)CC1` (stereo not drawn) [Example E93], 68.6 nM.

Source of the values: patent publication US20240408216A1, “PROTEIN INHIBITOR OR DEGRADING AGENT, PHARMACEUTICAL COMPOSITION CONTAINING SAME AND PHARMACEUTICAL USE” (JING MEDICINE TECHNOLOGY (SHANGHAI) LTD., priority 2021, published 2024).
